Assay results: patent US20020028193A1, “Recombinant beta2-adrenergic receptor delivery and use in treating airway and vascular diseases” (priority 2000, published 2002)
“And” between values parts separate entries of the source, which are not always exact repeats. Equal entries are not always repeated.

Legend:
[1] = biological target: T1, β2AR (Rattus norvegicus, UniProt P10608); details: SPOC1 cell membranes
[2] = tested on: β2AR-luciferase fusion genes; test: Dexamethasone induction of β2AR-luciferase fusion genes transiently transfected into HepG2 cells; format: cell-based, human; details: pβ2AR(−643/+126); 0.1 μM dexamethasone, 8 hrs
Protocol: HepG2 cells were transiently transfected with pRShGRα, pRSVβ-ga1, and either pβ2AR(−62/+126), pβ2AR(−152/+126), pβ2AR(−643/+126), pβ2AR(−1115/+126), pβ2AR(−2552/+126), pβ2AR(−3129/+126), or N-600 prATLUC. Transfected cells were incubated for 48 hours prior to addition of dexamethasone. Luciferase activity for each construct is expressed relative to that obtained with pβ2AR(−62/+126) in the absence of dexamethasone.
Human HepG2 cells were transiently transfected with pRShGRα, pRSVβ-gal, and either pβ2AR(−3129/+126) or pβ2ARm1 (−3129/+126) as described in the specification. After transfection, the cells were incubated for 8 hours in either the absence or presence of 0.1 μM dexamethasone and cells were harvested. Values are means±S.E. of data from five independent experiments, each performed in triplicate. Asterisks indicate a significant (p<0.05) difference in luciferase activity from untreated and dexamethasone-treated cells as determined by Student's t-test.
In order to determine whether the six putative GREs were functional, six β2AR-luciferase fusion gene deletion mutants were generated. […] To test the effect of dexamethasone on expression of the truncated β2AR-luciferase fusion genes, HepG2 cells transfected with each of the six fusion genes were incubated with either vehicle or 0.1 μM dexamethasone for 8 hrs, and luciferase activity was determined. […]

[3] = tested on: GRE-pT81LUC fusion genes; test: Dexamethasone induction of putative GREs fused to heterologous thymidine kinase promoter (pT81LUC) in HepG2 cells; format: cell-based, human; details: 0.1 μM dexamethasone
Protocol: Plasmid constructs with the luciferase gene under the control of the tk promoter and various putative GREs (see FIG. 8 for sequences) were tested for luciferase activity after transfection into HepG2 cells that were co-transfected with pRShGRα. Transfected cells were incubated for 48 hours prior to addition of 0.1 μM dexamethasone.
To further examine the functionality of the putative glucocorticoid response elements, fragments containing either GRE1, GRE5, or GRE2, GRE3 and GRE4 together were fused to pT81LUC, a luciferase expression plasmid driven by a minimal thymidine kinase promoter.^102 Sequences of the double stranded oligonucleotides containing GRE1, GRE5 and the MMTV GRE are shown in FIG. 10. […] Activity of GRE5-pT81LUC was induced 3.2-fold in the presence of 0.1 μM dexamethasone (FIG. 12), a value that was higher than that observed with any of the β2AR-luciferase fusion genes that included GRE5. Activity of GRE1-pT81LUC was not induced by 0.1 μM dexamethasone (FIG. 12). […] This level of fold-induction was similar to that obtained with MMTVsequence fused to pT81LUC.

[4] = tested on: β2AR-luciferase fusion genes; test: Dexamethasone induction of β2AR-luciferase fusion genes in transiently transfected SPOC1 cells; format: cell-based, rat; details: pβ2AR(−3129/+126) in SPOC1 cells; 0.1 μM dexamethasone, 8 hrs
[5] = biological target: T1, β2AR; test: Cyclic AMP accumulation in SPOC1 cells (radioimmunoassay); format: cell-based; set-up: Because SPOC1 cells express a wild-type β2AR; endogenous in cells; host or cells: SPOC1 rat tracheal epithelial cells
Protocol: Cyclic AMP accumulation was measured by radioimmunoassay. Significant differences were determined by one way ANOVA and Neuman-Keuls test.
In order to determine if the recombinant β2AR expressed in clonal SPOC1 cells is able to functionally couple to adenylyl cyclase, cyclic AMP radioimmunoassays are performed using lysates. Mock-infected and clonal SPOC1 cells are plated at a density of 100,000 cells/well in 12-well dishes (Costar, Cambridge, Mass.). Cells are treated with adrenergic agonists and the phosphodiesterase inhibitor isobutylmethylxanthine (IBMX) for 10 min. Cellular cyclic AMP levels are determined by radioimmunoassay using the Biotrak CAMP Assay System (Amersham Life Science, Arlington Heights, Ill.). […] These experiments are repeated four times with four different SPOC1 cell platings.

[6] = tested on: mucociliary clearance; details: inhaled, humans, controls and asthmatic individuals; cited from earlier work
[7] = biological target: glucocorticoid receptor alpha (expressed from pRShGRalpha) (Homo sapiens) (UniProt P04150); test: cell_activity; details: MMTV-pT81LUC in HepG2, 0.1 uM dexamethasone
[8] = biological target: glucocorticoid receptor (recombinant human GR) (Homo sapiens, UniProt P04150 P04150:1-777); test: competition; unlabeled competitor did not compete with labeled GRE5 at up to 250-fold excess; details: chain copies: 2
Protocol: To further characterize the ability of GRE₅ to bind glucocorticoid receptor in vitro, we performed electrophoretic mobility shift assays with recombinant human glucocorticoid receptor and serial dilutions of various competitor oligonucleotides was performed.

[9] = biological target: glucocorticoid receptor alpha (expressed from pRShGRalpha) (Homo sapiens, UniProt P04150 P04150:1-777); test: cell_activity; GRE5-pT81LUC in HepG2, 0.1 uM dexamethasone; details: tags: co-transfected expression plasmid pRShGRalpha in HepG2 cells; chain copies: 2; label: 32P
Text: To further examine the functionality of the putative glucocorticoid response elements, fragments containing either GRE₁, GRE₅, or GRE₂, GRE₃ and GRE₄ together were fused to pT81LUC, a luciferase expression plasmid driven by a minimal thymidine kinase promoter.¹⁰² Sequences of the double stranded oligonucleotides containing GRE₁, GRE₅ and the MMTV GRE are shown in FIG. 10.

T1 sequence (P10608 whole entry, the tested form may be a part): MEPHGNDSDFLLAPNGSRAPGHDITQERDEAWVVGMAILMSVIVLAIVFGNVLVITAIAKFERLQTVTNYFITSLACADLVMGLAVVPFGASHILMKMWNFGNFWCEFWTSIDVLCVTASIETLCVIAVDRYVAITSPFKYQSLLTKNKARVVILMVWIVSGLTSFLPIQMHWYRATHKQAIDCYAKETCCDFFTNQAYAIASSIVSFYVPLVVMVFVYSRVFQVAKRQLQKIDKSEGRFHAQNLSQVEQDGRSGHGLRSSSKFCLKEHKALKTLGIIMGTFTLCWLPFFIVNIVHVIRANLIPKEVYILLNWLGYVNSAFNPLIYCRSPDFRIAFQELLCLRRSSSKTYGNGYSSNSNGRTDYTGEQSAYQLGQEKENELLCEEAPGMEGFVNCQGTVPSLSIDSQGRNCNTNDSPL
Chain of glucocorticoid receptor alpha (expressed from pRShGRalpha) (P04150 whole entry, the tested form may be a part, one chain of several): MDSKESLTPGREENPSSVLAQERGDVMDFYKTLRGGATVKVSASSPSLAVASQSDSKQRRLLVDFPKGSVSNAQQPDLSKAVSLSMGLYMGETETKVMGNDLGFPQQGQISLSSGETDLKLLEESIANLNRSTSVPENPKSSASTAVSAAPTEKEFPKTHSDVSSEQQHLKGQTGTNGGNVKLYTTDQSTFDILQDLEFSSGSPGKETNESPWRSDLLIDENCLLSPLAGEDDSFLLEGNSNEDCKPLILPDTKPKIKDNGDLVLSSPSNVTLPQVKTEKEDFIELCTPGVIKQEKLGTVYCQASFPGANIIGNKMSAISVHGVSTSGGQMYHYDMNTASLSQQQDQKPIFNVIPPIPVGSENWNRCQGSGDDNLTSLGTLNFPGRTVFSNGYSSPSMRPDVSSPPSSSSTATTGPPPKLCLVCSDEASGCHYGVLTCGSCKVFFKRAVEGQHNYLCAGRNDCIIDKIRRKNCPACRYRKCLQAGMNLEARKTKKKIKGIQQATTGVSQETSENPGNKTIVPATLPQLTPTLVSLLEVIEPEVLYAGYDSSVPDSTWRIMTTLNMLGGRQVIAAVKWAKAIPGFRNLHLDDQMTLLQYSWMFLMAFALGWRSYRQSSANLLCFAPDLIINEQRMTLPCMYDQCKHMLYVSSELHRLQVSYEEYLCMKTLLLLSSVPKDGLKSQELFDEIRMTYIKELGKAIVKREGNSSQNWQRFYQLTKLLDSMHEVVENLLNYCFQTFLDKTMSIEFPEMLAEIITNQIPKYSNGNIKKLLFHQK
Chain of glucocorticoid receptor alpha (expressed from pRShGRalpha) (Homo sapiens) (P04150 whole entry): as the sequence (P04150 whole entry, the tested form may be a part, one chain of several) above
Chain of glucocorticoid receptor (recombinant human GR) (P04150 whole entry, one chain of several): as the sequence (P04150 whole entry, the tested form may be a part, one chain of several) above

CC(C)(C)NCC(O)COc1cccc2[nH]c(C#N)c(I)c12 (stereo not shown) [[^125I]CYP, [^125I]cyanoiodopindolol]
binding site concentration ([1]; [125I]CYP saturation): 60 fmol/mg protein
Kd ([1]; read-out: [125I]CYP dissociation constant, 37° C., 2 hour, nonspecific binding 0.1 μM (−)-propranolol, representative Scatchard plot): 10 pM

C[C@@H]1C[C@H]2[C@@H]3CCC4=CC(=O)C=C[C@]4(C)[C@@]3(F)[C@@H](O)C[C@]2(C)[C@@]1(O)C(=O)CO [dexamethasone]
induction of luciferase activity [2]: approximately 1.5 fold
induction of luciferase activity ([3]; GRE5-pT81LUC): 3.2 fold
induction of luciferase activity ([3]; MMTV-pT81LUC fusion gene (positive control)): ~4 fold
induction in luciferase activity [4]: ~2 fold

CC(C)NCC(O)c1ccc(O)c(O)c1 (stereo not shown) [isoproterenol]
Cyclic AMP production [5]: 3.17±0.57 fmol/min/mg protein and 5.95±1.4 fmol/min/mg protein

CCC(NC(C)C)C(O)c1ccc(O)c2[nH]c(=O)ccc12 (stereo not shown) [procaterol]
effect on mucociliary clearance [6]: no effect

CC(C)(C)NCC(O)c1cc(O)cc(O)c1 (stereo not shown) [terbutaline]
effect on mucociliary clearance [6]: increases

MMTV GRE
activity (fold induction) [7]: 4

isobutylmethylxanthine [IBMX]
Cyclic AMP accumulation ([5]; 100 μM IBMX, 10 min at 37° C., control 0.27±0.08, statistically insignificant increase): 0.40±0.04 fmol/min/mg protein

B1: m1GRE5 (core printed only) (dsDNA)
DNA 1: GGGTGAGCTATTCT
DNA 2: AGAATAGCTCACCC
binding result [8]: no binding

B2: GRE5 (rat beta2AR gene, 35 bp oligonucleotide; core printed only) (dsDNA)
DNA 1: GGGTGAGCTGTTCT
DNA 2: AGAACAGCTCACCC
activity [9]: 3.2 fold induction
